The source of these data is patent US20150284375A1 (AJINOMOTO CO., INC., priority 2012, published 2015).

SMILES strings stand for the structures.

T1 sequence (O75762 whole entry): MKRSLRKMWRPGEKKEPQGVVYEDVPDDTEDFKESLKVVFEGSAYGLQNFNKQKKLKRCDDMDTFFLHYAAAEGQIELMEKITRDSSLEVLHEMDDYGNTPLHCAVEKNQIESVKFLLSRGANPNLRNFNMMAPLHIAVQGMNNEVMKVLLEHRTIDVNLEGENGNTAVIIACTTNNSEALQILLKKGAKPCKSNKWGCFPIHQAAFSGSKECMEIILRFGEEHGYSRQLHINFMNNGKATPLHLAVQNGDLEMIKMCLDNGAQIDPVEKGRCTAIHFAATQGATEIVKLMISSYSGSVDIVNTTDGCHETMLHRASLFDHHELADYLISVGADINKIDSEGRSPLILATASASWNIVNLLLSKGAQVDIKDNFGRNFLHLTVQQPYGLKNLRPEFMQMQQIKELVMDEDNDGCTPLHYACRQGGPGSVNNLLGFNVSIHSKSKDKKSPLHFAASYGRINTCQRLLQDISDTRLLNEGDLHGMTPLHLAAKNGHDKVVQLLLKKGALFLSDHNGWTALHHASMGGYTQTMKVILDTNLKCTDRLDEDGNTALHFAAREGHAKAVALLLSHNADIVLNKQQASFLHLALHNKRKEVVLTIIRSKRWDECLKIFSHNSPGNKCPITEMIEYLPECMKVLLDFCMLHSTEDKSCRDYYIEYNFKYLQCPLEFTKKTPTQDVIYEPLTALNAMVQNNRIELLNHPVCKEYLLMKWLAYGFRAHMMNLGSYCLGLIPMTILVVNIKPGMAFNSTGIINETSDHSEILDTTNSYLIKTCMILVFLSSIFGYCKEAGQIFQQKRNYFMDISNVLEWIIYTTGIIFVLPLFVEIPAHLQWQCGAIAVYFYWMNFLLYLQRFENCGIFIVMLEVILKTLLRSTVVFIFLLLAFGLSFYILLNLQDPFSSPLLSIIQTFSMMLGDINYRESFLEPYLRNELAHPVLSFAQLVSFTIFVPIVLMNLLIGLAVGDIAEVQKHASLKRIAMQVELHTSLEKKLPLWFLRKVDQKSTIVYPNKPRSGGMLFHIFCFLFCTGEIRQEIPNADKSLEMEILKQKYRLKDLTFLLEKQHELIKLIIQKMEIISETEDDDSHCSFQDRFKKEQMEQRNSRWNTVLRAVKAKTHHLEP

The experiment addresses T1, human TRPA1 (Homo sapiens, UniProt O75762).
T1 construct: expressed in transfected cells; host or cells: Human embryonic kidney-derived 293T cells, transiently transfected with the pcDNA3.1/zeo(+) human TRPA1 plasmid
Nature of the experiment: Measurement of TRPA1 antagonist activity (intracellular calcium increase, FLIPR, allylisothiocyanate stimulation). The note with it: allylisothiocyanate 20 μM stimulation, FLIPR calcium assay; read-out: antagonism hTRPA1. Type of experiment: cell-based. The gist of the method: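 IC50 derives from a sigmoid fit of inhibition of the 5-min FLIPR fluorescence change evoked by 20 μM allylisothiocyanate, normalized between agonist and buffer responses. Test substance, diluted in HBSS/20 mM HEPES pH 7.2 plus 0.1% BSA, was applied 10 min beforehand at room temperature to Calcium4-loaded 293T cells transiently expressing human TRPA1.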
In the case of `C[C@H](Oc1cccc(CNC(=O)[C@@H]2CCCN2S(=O)(=O)c2ccc(F)cc2)c1)c1ccccc1` [Example 144, (2S)-1-(4-fluorophenyl)sulfonyl-N-[[3-[(1S)-1-phenylethoxy]phenyl]methyl]pyrrolidine-2-carboxamide], the IC50 was determined as 550 nM.
For the compound `C[C@@H](Oc1cccc(CNC(=O)[C@@H]2CCCN2S(=O)(=O)c2ccc(F)cc2)c1)c1ccccn1` [Example 146, (2S)-1-(4-fluorophenyl)sulfonyl-N-[[3-[(1R)-1-(2-pyridyl)ethoxy]phenyl]methyl]pyrrolidine-2-carboxamide], the IC50 worked out at 9800 nM.
As for `C[C@H](Oc1cccc(CNC(=O)[C@@H]2CCCN2S(=O)(=O)c2ccc(F)cc2)c1)c1ccccn1` [Example 147, (2S)-1-(4-fluorophenyl)sulfonyl-N-[[3-[(1S)-1-(2-pyridyl)ethoxy]phenyl]methyl]pyrrolidine-2-carboxamide], the figure is 8300 nM; as for `O=C(NCc1cccc(OCCc2ccccc2)c1)[C@@H]1CCCN1S(=O)(=O)c1ccc(F)cc1` [Example 148, (2S)-1-(4-fluorophenyl)sulfonyl-N-[(3-phenethyloxyphenyl)methyl]pyrrolidine-2-carboxamide], 340 nM.
Under `O=C(NCc1cccc(OCc2ccc(C(F)(F)F)nc2)c1)[C@@H]1CCCN1S(=O)(=O)c1ccco1` [Example 149, (2S)-1-(2-furylsulfonyl)-N-[[3-[[6-(trifluoromethyl)-3-pyridyl]methoxy]phenyl]methyl]pyrrolidine-2-carboxamide] stands 240 nM.
For `O=C(NCc1cccc(OCc2ccnc(C(F)(F)F)c2)c1)[C@@H]1CCCN1S(=O)(=O)c1ccco1` [Example 150, (2S)-1-(2-furylsulfonyl)-N-[[3-[[2-(trifluoromethyl)-4-pyridyl]methoxy]phenyl]methyl]pyrrolidine-2-carboxamide], the IC50 was 110 nM.
For `O=C(NCc1ccc(Oc2cccc(C(F)(F)F)c2)cc1)[C@@H]1C=CCN1S(=O)(=O)c1ccc(F)cc1` [Example 151, (2S)-1-(4-fluorophenyl)sulfonyl-N-[[4-[3-(trifluoromethyl)phenoxy]phenyl]methyl]-2,5-dihydropyrrole-2-carboxamide], the IC50 came to 290 nM.
As for `O=C(NCc1ccc(Oc2cccc(C(F)(F)F)c2)cc1)[C@@H]1CCCN1S(=O)(=O)c1ccco1` [Example 152, (2S)-1-(2-furylsulfonyl)-N-[[4-[3-(trifluoromethyl)phenoxy]phenyl]methyl]pyrrolidine-2-carboxamide], the figure is 460 nM; as for `O=C(NCc1ccc(Oc2cccc(C(F)(F)F)c2)cc1)[C@@H]1CCCN1S(=O)(=O)c1ccoc1` [Example 153, (2S)-1-(3-furylsulfonyl)-N-[[4-[3-(trifluoromethyl)phenoxy]phenyl]methyl]pyrrolidine-2-carboxamide], 310 nM; as for `O=C(NCc1ccc(Oc2cccc(C(F)(F)F)c2)cc1)[C@@H]1CCCN1S(=O)(=O)c1ccsc1` [Example 154, (2S)-1-(3-thienylsulfonyl)-N-[[4-[3-(trifluoromethyl)phenoxy]phenyl]methyl]pyrrolidine-2-carboxamide], 180 nM.
Under `O=C(NCc1ccc(Oc2ccnc(C(F)(F)F)c2)cc1)[C@@H]1CCCN1S(=O)(=O)c1ccco1` [Example 155, (2S)-1-(2-furylsulfonyl)-N-[[4-[[2-(trifluoromethyl)-4-pyridyl]oxy]phenyl]methyl]pyrrolidine-2-carboxamide] stands 5700 nM; under `O=C(NCc1ccc(Oc2ccnc(C(F)(F)F)c2)cc1)[C@@H]1CCCN1S(=O)(=O)c1ccsc1` [Example 156, (2S)-1-(3-thienylsulfonyl)-N-[[4-[[2-(trifluoromethyl)-4-pyridyl]oxy]phenyl]methyl]pyrrolidine-2-carboxamide], 1000 nM.
For `O=C(NCc1cccc(Oc2ccc(C(F)(F)F)cc2)c1)[C@@H]1C[C@H](F)CN1S(=O)(=O)c1ccc(F)cc1` [Example 157, (2S,4S)-4-fluoro-1-(4-fluorophenyl)sulfonyl-N-[[3-[4-(trifluoromethyl)phenoxy]phenyl]methyl]pyrrolidine-2-carboxamide], the IC50 turned out to be 840 nM.
As for `O=C(NCc1cccc(Oc2ccc(C(F)(F)F)cc2)c1)[C@@H]1CC(F)(F)CN1S(=O)(=O)c1ccc(F)cc1` [Example 159, (2S)-4,4-difluoro-1-(4-fluorophenyl)sulfonyl-N-[[3-[4-(trifluoromethyl)phenoxy]phenyl]methyl]pyrrolidine-2-carboxamide], the figure is 210 nM.
As for `O=C(NCc1cccc(Oc2ccc(C(F)(F)F)cc2)c1)[C@@H]1C=CCN1S(=O)(=O)c1ccco1` [Example 160, (2S)-1-(2-furylsulfonyl)-N-[[3-[4-(trifluoromethyl)phenoxy]phenyl]methyl]-2,5-dihydropyrrole-2-carboxamide], the IC50 worked out at 210 nM.
As for `O=C(NCc1cccc(Oc2ccc(C(F)(F)F)cc2)c1)[C@@H]1C=CCN1S(=O)(=O)c1ccsc1` [Example 161, (2S)-1-(3-thienylsulfonyl)-N-[[3-[4-(trifluoromethyl)phenoxy]phenyl]methyl]-2,5-dihydropyrrole-2-carboxamide], the figure is 57 nM; as for `O=C(NCc1cccc(Oc2ccc(C(F)(F)F)cc2)c1)[C@@H]1CCCN1S(=O)(=O)c1ccoc1` [Example 162, (2S)-1-(3-furylsulfonyl)-N-[[3-[4-(trifluoromethyl)phenoxy]phenyl]methyl]pyrrolidine-2-carboxamide], 96 nM.
As for `O=C(NCc1cccc(OCc2ccc(C(F)(F)F)cc2)c1)[C@@H]1CCCN1S(=O)(=O)c1ccc(F)cc1` [Example 163, (2S)-1-(4-fluorophenyl)sulfonyl-N-[[3-[[4-(trifluoromethyl)phenyl]methoxy]phenyl]methyl]pyrrolidine-2-carboxamide], the IC50 is 27 nM.
`O=C(NCc1cccc(OCc2ccc(C(F)(F)F)cc2)c1)[C@@H]1C[C@H](F)CN1S(=O)(=O)c1ccc(F)cc1` [Example 164, (2S,4S)-4-fluoro-1-(4-fluorophenyl)sulfonyl-N-[[3-[[4-(trifluoromethyl)phenyl]methoxy]phenyl]methyl]pyrrolidine-2-carboxamide]: the IC50 worked out at 450 nM.
As for `O=C(NCc1cccc(OCc2ccc(C(F)(F)F)cc2)c1)[C@@H]1C[C@@H](F)CN1S(=O)(=O)c1ccc(F)cc1` [Example 165, (2S,4R)-4-fluoro-1-(4-fluorophenyl)sulfonyl-N-[[3-[[4-(trifluoromethyl)phenyl]methoxy]phenyl]methyl]pyrrolidine-2-carboxamide], the IC50 is 150 nM.
For the compound `O=C(NCc1cccc(OCc2ccc(C(F)(F)F)cc2)c1)[C@@H]1CC(F)(F)CN1S(=O)(=O)c1ccc(F)cc1` [Example 166, (2S)-4,4-difluoro-1-(4-fluorophenyl)sulfonyl-N-[[3-[[4-(trifluoromethyl)phenyl]methoxy]phenyl]methyl]pyrrolidine-2-carboxamide], the IC50 turned out to be 110 nM.
Take `O=C(NCc1cccc(OCc2ccc(C(F)(F)F)cc2)c1)[C@@H]1[C@@H](O)CCN1S(=O)(=O)c1ccc(F)cc1` [Example 167, (2S,3S)-1-(4-fluorophenyl)sulfonyl-3-hydroxy-N-[[3-[[4-(trifluoromethyl)phenyl]methoxy]phenyl]methyl]pyrrolidine-2-carboxamide]: the IC50 was 240 nM.
Take `O=C(NCc1cccc(OCc2ccc(C(F)(F)F)cc2)c1)[C@@H]1[C@H](O)CCN1S(=O)(=O)c1ccc(F)cc1` [Example 168, (2S,3R)-1-(4-fluorophenyl)sulfonyl-3-hydroxy-N-[[3-[[4-(trifluoromethyl)phenyl]methoxy]phenyl]methyl]pyrrolidine-2-carboxamide]: the IC50 was 2200 nM.
For the compound `O=C(NCc1cccc(OCc2ccc(C(F)(F)F)cc2)c1)[C@@H]1C[C@@H](O)CN1S(=O)(=O)c1ccc(F)cc1` [Example 169, (2S,4R)-1-(4-fluorophenyl)sulfonyl-4-hydroxy-N-[[3-[[4-(trifluoromethyl)phenyl]methoxy]phenyl]methyl]pyrrolidine-2-carboxamide], the IC50 amounted to 290 nM.
As for `O=C(NCc1cccc(OCc2ccc(C(F)(F)F)cc2)c1)[C@@H]1C[C@H](O)CN1S(=O)(=O)c1ccc(F)cc1` [Example 170, (2S,4S)-1-(4-fluorophenyl)sulfonyl-4-hydroxy-N-[[3-[[4-(trifluoromethyl)phenyl]methoxy]phenyl]methyl]pyrrolidine-2-carboxamide], the figure is 1700 nM; as for `O=C(NCc1cccc(OCc2ccc(C(F)(F)F)cc2)c1)[C@@H]1[C@H]2C[C@H]2CN1S(=O)(=O)c1ccc(F)cc1` [Example 171, (1R,4S,5S)-3-(4-fluorophenyl)sulfonyl-N-[[3-[[4-(trifluoromethyl)phenyl]methoxy]phenyl]methyl]-3-azabicyclo[3.1.0]hexane-4-carboxamide], 1900 nM; as for `O=C(NCc1cccc(OCc2ccc(C(F)(F)F)cc2)c1)[C@@H]1[C@@H]2C[C@@H]2CN1S(=O)(=O)c1ccc(F)cc1` [Example 172, (1S,4S,5R)-3-(4-fluorophenyl)sulfonyl-N-[[3-[[4-(trifluoromethyl)phenyl]methoxy]phenyl]methyl]-3-azabicyclo[3.1.0]hexane-4-carboxamide], 1200 nM.
On to `O=C(NCc1cccc(OCc2ccc(C(F)(F)F)cc2)c1)[C@@H]1C[C@H]2C[C@H]2N1S(=O)(=O)c1ccc(F)cc1` [Example 173, (1R,3S,5R)-4-(4-fluorophenyl)sulfonyl-N-[[3-[[4-(trifluoromethyl)phenyl]methoxy]phenyl]methyl]-4-azabicyclo[3.1.0]hexane-3-carboxamide], for which the IC50 stood at 99 nM.
Under `O=C(NCc1cccc(OCc2ccc(C(F)(F)F)cc2)c1)[C@@H]1C[C@@H]2C[C@@H]2N1S(=O)(=O)c1ccc(F)cc1` [Example 174, (1S,3S,5S)-4-(4-fluorophenyl)sulfonyl-N-[[3-[[4-(trifluoromethyl)phenyl]methoxy]phenyl]methyl]-4-azabicyclo[3.1.0]hexane-3-carboxamide] stands 49 nM.
